Source: publication PMC9542285, “Novel amides of mycophenolic acid and some heterocyclic derivatives as immunosuppressive agents” (Journal of Enzyme Inhibition and Medicinal Chemistry, 2022)

Experiments:
PBMCs [1] = assay: In vitro cytotoxicity assay with XTT dye, PBMCs; assay type: cell-based, human; conditions: Homo sapiens, PBMC, 72 h incubation then 24 h XTT, read-out: IC50 PBMCs (XTT test)
Description: (§1) Figure 2. Representative dose-response curve to determine the IC50 of MPA and A2. […] Next, plates were incubated for 24 h with XTT reagent. The conversion of water-soluble yellow tetrazolium XTT salt into orange formazan was monitored by measuring the optical density at 450 nm on microplate spectrophotometer. For XTT assay at least three experiments were performed and values are presented as mean ± SD.
(§2) The cytotoxic effect of derivatives of MPA was measured using in vitro 2,3-bis(2-methoxy-4-nitro-5-sulfophenyl)-2H-tetrazolium-5-carboxanilide (XTT)-based assay (Roche, Basel, Swiss). PBMCs suspended in complete X–VIVO20 medium and T-Jurkat cells suspended in complete RPMI-1640 medium were added on a 96-well plate at a concentration of 5 × 10^5 cells/50 µL/well. […] As a background control we used medium without cells, as a positive control we used cells untreated with compounds. After 48 h for T-Jurkat cells and 72 h for PBMCs of incubation in a humidified atmosphere with 5% CO2 at 37 °C, 50 µL of XTT reagent (freshly prepared according to the manufacturer’s procedure) was added to all samples. Plates were incubated for 24 h (5% CO2 at 37 °C). The conversion of water-soluble yellow tetrazolium XTT salt into orange formazan was monitored by measuring the optical density (OD) at 450 nm on Agilent BioTek Epoch Microplate Spectrophotometer (Agilent Technologies, Santa Clara, CA), with a background wavelength at 690 nm. […] Each sample was performed in triplicates.

T-Jurkat cell line = assay: In vitro cytotoxicity assay with XTT dye, T-Jurkat; assay type: cell-based, human; conditions: Homo sapiens, 48 h incubation then 24 h XTT, read-out: IC50 T-Jurkat (XTT test)
Description: as §1, §2

T-Jurkat cells = assay: Dye-based proliferation assay VPD450 (flow cytometry), T-Jurkat; assay type: cell-based, human; conditions: Homo sapiens, 48 h
Description: (§3) Figure 4. […] Cell proliferation was analysed using flow cytometry.

PBMCs [2] = assay: VPD450 proliferation of PBMCs with or without GMP (IMPDH mechanism test); assay type: cell-based, human; conditions: for Mechanism of action (IMPDH inhibition, GMP reversal): PBMCs, with or without 50 µM GMP, 72 h
Description: According to reported experiment, suppression of cell proliferation caused by IMPDH inhibitors in the presence of guanosine source, e.g. gunosine monophosphate (GMP) is reversible.
Figure 5. […] Cell proliferation was analysed using flow cytometry.
Cells proliferation was analyzed using flow cytometry.
(1 picture or pasted object on this page, not shown here)

PBMCs [3] = assay: cells; conditions: Homo sapiens, PBMC, 72 h, read-out: EC50 PBMCs (VPD450 proliferation), PBMCs stimulated with anti-CD3/anti-CD28 beads, 72 h
Description: (§4) Cell proliferation was analysed using flow cytometry. The results are expressed as the mean ± SD.
(§5) PBMCs and T-Jurkat cells were washed twice with warm PBS (37 °C), suspended in fresh PBS at a final concentration of 10–30 × 10^6 cells/mL and labelled with 1 µL of VPD450 (BD Biosciences, Franklin Lakes, NJ) at 37 °C for 15 min. Each 5 min cells were vortexed to provide uniform staining[42]^,[43]. Subsequently, cells were washed with PBS and then with complete medium (X-VIVO20 for PBMCs and RPMI-1640 for T-Jurkat cells). After this step, cells were suspended in fresh complete medium, seeded on 96-well plates (1 × 10^6 cells/well). PBMCs were additionally stimulated with magnetic beads coated with anti-CD3 and anti-CD28 antibodies (Invitrogen, Carlsbad, CA) in 1:0.5 cell:bead ratio. Of 100 µL of examined derivatives of MPA were added to experimental wells to receive final concentrations: 100; 10; 1; 0.1; 0.01 µM. In parallel, stained and not stimulated cells, as well as stained and stimulated cells, were seeded in the same concentration as controls. After 48 h for T-Jurkat and 72 h for PBMCs, cells were analysed with flow cytometer LSRFortessa (BD Biosciences, Franklin Lakes, NJ) and Kaluza C Flow Cytometry Analysis Software (Beckman Coulter, Brea, CA). […] Cell viability was determined at the highest concentration of the tested compound. For this purpose, TC20 cell counter (Biorad) was used with trypan blue exclusion.

[4] = Precipitation / solubility of compounds in culture; assay type: physicochemical; design: key to Precipitating compound flag (XTT test, PBMCs) / Precipitating compound flag (VPD450 assay, PBMCs): (↓) – precipitating compound; conditions: for Precipitating compound flag (VPD450 assay, PBMCs) / Precipitating compound flag (XTT test, PBMCs): PBMC culture, DMSO with Tween20; for Solubility in PBMC culture: XTT assay conditions
Description: Drug toxicity that affects the cells can cause a variety of serious side effects, including uncontrolled suppression of the immune system. In order to check the cytotoxicity of the tested compounds, the XTT test was performed, the results of which are presented in Table 2. All tested compounds were characterised by lower cytotoxicity than native MPA. Unfortunately, several compounds (marked with ↓) were partially insoluble in culture despite surfactant addition. They were investigated too, but one could not use them as an immunosuppressive drug in their current form. Taking into account the EC50 values obtained in the proliferation tests ([…] staining, Table 3), the compound A2 was selected as the one with the highest immunosuppressive potential and the possibility of its later use in therapy, and is presented in the graphs (Figures 2–4).
To prepare appropriate concentrations of tested compounds, the substances were dissolved in DMSO (Sigma Aldrich, Poland) with 1% addition of Tween20 to obtain final concentration of 0.01 M. The solution was diluted 10-fold and then 5-fold in appropriate medium without additives (RPMI-1640 for T-Jurkat cell line; X-VIVO20 for PBMCs) to obtain the following concentrations: 200; 20; 2; 0.2; 0.02 µM.

[5] = In vitro cytotoxicity assay with XTT dye, T-Jurkat; assay type: cell-based, human; conditions: human, T-Jurkat cell line, […], trypan blue exclusion
Description: as §1, §2

[6] = Dye-based proliferation assay VPD450 (flow cytometry), T-Jurkat; assay type: cell-based, human; conditions: human, VPD450-labelled T-Jurkat cells, […], trypan blue exclusion
Description: as §3

[7] = In vitro cytotoxicity assay with XTT dye, PBMCs; assay type: cell-based, human; conditions: human, […], trypan blue exclusion
Description: as §1, §2

in vitro = conditions: human
Description: as §4, §5

Row | SMILES | IC50 (PBMCs [1]) | IC50 (T-Jurkat cell line) | EC50 (T-Jurkat cells) | Mechanism of action (IMPDH inhibition, GMP reversal) (PBMCs [2]) | melting point | EC50 (PBMCs [3]) | Precipitating compound flag (VPD450 assay, PBMCs) [4] | Precipitating compound flag (XTT test, PBMCs) [4] | Solubility in PBMC culture [4] | viability at 48 h, 100 µM [5] | viability at 48 h, 100 µM [6] | viability at 72 h, 100 µM [7] | Effect of GMP addition on proliferation (PBMCs [2]) | viability at 72 h, 100 µM (in vitro)
1 | COc1c(C)c2c(c(O)c1C/C=C(\C)CCC(=O)NCc1ncccn1)C(=O)OC2 [A7, N-[1-(pirymidin-2-yl)methyl] mycophenolate] | 70.48 ± 0.035 µM | 10.739 ± 0.003 µM | 9.51 ± 0.047 µM | consistent with that of MPA | 107 to 110 °C | 29.45 ± 0.025 µM |  |  |  |  |  |  |  | 
2 | COc1c(C)c2c(c(O)c1C/C=C(\C)CCC(=O)Nc1nc3ccc(C)cc3s1)C(=O)OC2 [A9, N-(6-methylbenzo[d]thiazol-2-yl) mycophenolate] | 94.6 ± 0.047 µM | 85.7 ± 0.004 µM | 22.72 ± 0.113 µM |  | 257 to 260 °C (dec.) | 136.2 ± 0.011 µM | (↓) | (↓) | limited solubility |  |  |  |  | 
3 | COc1c(C)c2c(c(O)c1C/C=C(\C)CCC(=O)Nc1nc3ccc(C(F)(F)F)cc3s1)C(=O)OC2 [A14, N-[6-(trifluoromethyl)benzo[d]thiazol-2-yl] mycophenolate] | 81.482 ± 0.041 µM | 34.749 ± 0.003 µM | 12.58 ± 0.063 µM |  | 261 to 264 °C (dec.) | 30.71 ± 0.008 µM |  |  |  |  |  |  |  | 
4 | COc1c(C)c2c(c(O)c1C/C=C(\C)CCC(=O)Nc1nc3ccccc3[nH]1)C(=O)OC2 [A3, N-(1H-benzo[d]imidazol-2-yl) mycophenolate] | 94.538 ± 0.047 µM |  |  |  | 253 to 255 °C (dec.) | 120 µM |  |  |  | 74% | 55% |  |  | 
5 | COc1c(C)c2c(c(O)c1C/C=C(\C)CCC(=O)Nc1nc3ccc([N+](=O)[O-])cc3s1)C(=O)OC2 [A15, N-(6-nitrobenzo[d]thiazol-2-yl) mycophenolate] | 137.63 ± 0.069 µM | 12.717 ± 0.005 µM | 13.37 ± 0.067 µM |  | 278 to 280 °C (dec.) | 44.59 ± 0.013 µM | (↓) | (↓) | limited solubility |  |  |  |  | 
6 | COc1c(C)c2c(c(O)c1C/C=C(\C)CCC(=O)Nc1nc3ccc(Cl)cc3s1)C(=O)OC2 [A12, N-(6-chlorobenzo[d]thiazol-2-yl) mycophenolate] | 62.975 ± 0.031 µM | 12.833 ± 0.008 µM | 12.16 ± 0.061 µM |  | 261 to 264 °C (dec.) | 38.37 ± 0.017 µM | (↓) | (↓) | limited solubility |  |  |  |  | 
7 | COc1c(C)c2c(c(O)c1C/C=C(\C)CCC(=O)Nc1ccc3ocnc3c1)C(=O)OC2 [A6, N-(benzo[d]oxazol-5-yl) mycophenolate] | 55.487 ± 0.028 µM | 31.407 ± 0.002 µM | 13.84 ± 0.069 µM |  | 84 to 87 °C | 58.27 ± 0.021 µM |  |  |  |  |  |  |  | 
8 | COc1c(C)c2c(c(O)c1C/C=C(\C)CCC(=O)Nc1ccc3ncsc3c1)C(=O)OC2 [A4, N-(benzo[d]thiazol-6-yl) mycophenolate] | 24.639 ± 0.015 µM | 37.789 ± 0.002 µM | 14.73 ± 0.074 µM |  | 175 to 177 °C | 62.26 ± 0.01 µM |  |  |  |  |  |  |  | 
9 | COc1ccc2nc(NC(=O)CC/C(C)=C/Cc3c(O)c4c(c(C)c3OC)COC4=O)sc2c1 [A8, N-(6-methoxybenzo[d]thiazol-2-yl) mycophenolate] | 93.196 ± 0.047 µM | 51.124 ± 0.008 µM | 22.04 ± 0.11 µM |  |  | 133.5 ± 0.007 µM | (↓) | (↓) | limited solubility |  |  |  |  | 
10 | COc1c(C)c2c(c(O)c1C/C=C(\C)CCC(=O)Nc1nc3c(C)cccc3s1)C(=O)OC2 [A17, N-(4-methylbenzo[d]thiazol-2-yl) mycophenolate] |  |  |  |  | 173 to 176 °C | 82.1 µM | (↓) | – (↓) | limited solubility | 82% | 69% | 65% |  | 
11 | COc1c(C)c2c(c(O)c1C/C=C(\C)CCC(=O)Nc1nc3c(OC)cccc3s1)C(=O)OC2 [A16, N-(4-methoxybenzo[d]thiazol-2-yl) mycophenolate] | 54.578 ± 0.027 µM |  |  |  | 165 to 168 °C | 46.29 ± 0.011 µM | (↓) | (↓) | limited solubility | 69% | 73% |  |  | 
12 | COc1c(C)c2c(c(O)c1C/C=C(\C)CCC(=O)Nc1ccc3scnc3c1)C(=O)OC2 [A5, N-(benzo[d]thiazol-5-yl) mycophenolate] | 45.73 ± 0.023 µM | 75.04 ± 0.005 µM | 36.05 ± 0.18 µM |  | 114 to 117 °C | 76.98 ± 0.01 µM |  |  |  |  |  |  |  | 
13 | COc1c(C)c2c(c(O)c1C/C=C(\C)CCC(=O)O)C(=O)OC2 [MPA, Mycophenolic acid] | 10.52 ± 0.015 µM | 0.509 ± 0.008 µM | 0.49 ± 0.002 µM |  |  | 0.723 ± 0.011 µM |  |  |  |  |  |  | proliferation increases after the addition of GMP | 
14 | COc1c(C)c2c(c(O)c1C/C=C(\C)CCC(=O)Nc1nc3c(Cl)cccc3s1)C(=O)OC2 [A18, N-(4-chlorobenzo[d]thiazol-2-yl) mycophenolate] | 74.426 ± 0.037 µM | 10.261 ± 0.001 µM | 11.28 ± 0.056 µM | consistent with that of MPA |  | 14.7 ± 0.02 µM |  |  |  |  |  |  |  | 
15 | COc1c(C)c2c(c(O)c1C/C=C(\C)CCC(=O)Nc1nc3cc(C)c(C)cc3s1)C(=O)OC2 [A10, N-(5,6-dimethylbenzo[d]thiazol-2-yl) mycophenolate] | 129.41 ± 0.064 µM |  | 26.69 ± 0.133 µM |  | 246 to 247 °C (dec.) | 85.24 ± 0.012 µM |  |  |  | 51% |  |  |  | 
16 | COc1c(C)c2c(c(O)c1C/C=C(\C)CCC(=O)Nc1nc3ccccc3s1)C(=O)OC2 [A1, N-(benzo[d]thiazol-2-yl) mycophenolate] | 74.57 ± 0.04 µM |  |  |  |  |  |  |  |  | 68% |  |  |  | 82%
17 | COc1c(C)c2c(c(O)c1C/C=C(\C)CCC(=O)Nc1nc3ccc(Br)cc3s1)C(=O)OC2 [A13, N-(6-bromobenzo[d]thiazol-2-yl) mycophenolate] | 63.173 ± 0.032 µM | 58.069 ± 0.002 µM | 12.64 ± 0.063 µM |  | 265 to 267 °C (dec.) | 39.47 ± 0.013 µM |  |  |  |  |  |  |  | 
18 | COc1c(C)c2c(c(O)c1C/C=C(\C)CCC(=O)Nc1nc3ccc(F)cc3s1)C(=O)OC2 [A11, N-(6-fluorobenzo[d]thiazol-2-yl) mycophenolate] | 139.86 ± 0.07 µM |  | 63.21 ± 0.316 µM |  | 232 to 236 °C (dec.) | 83.07 ± 0.012 µM | (↓) | (↓) | limited solubility | 56% |  |  |  | 
